# According to PMC5218480 (PLoS ONE, 2017):
# System: MV-4-11 cells
# Assay: Gene expression microarray analysis (Affymetrix PrimeView) and GSEA
# Assay type: cell-based, human
# Settings: MV-4-11, 48 hours, 1 μM each
structure (smiles),measurement,value
Nc1ccc(-c2cccs2)cc1NC(=O)c1ccc2c(c1)cc(C1CC1)n2CCN1CCOCC1 [ACY-1035],genes down-regulated greater than 2-fold relative to vehicle control,72 genes
